Measured values reported in PubChem BioAssay AID1259407 (Chemical Carcinogenesis Research Information System (CCRIS), 2018).
The source made the active and inactive calls. How the calls were made is not given here.

Test system: CCRIS mutagenicity, Ames/micronucleus/aberration tests
Test: CCRIS mutagenicity studies
[1] = Test System: AMES SALMONELLA TYPHIMURIUM, Strain/Indicator: TA98, Metabolic Activation: NONE, Method: STANDARD PLATE
[2] = Test System: AMES SALMONELLA TYPHIMURIUM, Strain/Indicator: TA100, Metabolic Activation: NONE, Method: STANDARD PLATE
[3] = Test System: AMES SALMONELLA TYPHIMURIUM, Strain/Indicator: TA100, Metabolic Activation: NONE, Method: PREINCUBATION
[4] = Test System: AMES SALMONELLA TYPHIMURIUM, Strain/Indicator: TA98, Metabolic Activation: S-9, Method: STANDARD PLATE
[5] = Test System: AMES SALMONELLA TYPHIMURIUM, Strain/Indicator: TA100, Metabolic Activation: S-9, Method: STANDARD PLATE
[6] = Test System: AMES SALMONELLA TYPHIMURIUM, Strain/Indicator: TA100, Metabolic Activation: RAT, LIVER, S-9, AROCLOR 1254, Method: STANDARD PLATE
[7] = Test System: AMES SALMONELLA TYPHIMURIUM, Strain/Indicator: TA98, Metabolic Activation: RAT, LIVER, S-9, AROCLOR 1254, Method: STANDARD PLATE

## CCc1ccc(/C=C/c2ccc([N+](=O)[O-])cc2)cc1
[1]
  mutagenic call: active; positive
Test System: AMES SALMONELLA TYPHIMURIUM, Strain/Indicator: TA98, Metabolic Activation: RAT, LIVER, S-9, AROCLOR, Method: STANDARD PLATE
  mutagenic call: active; positive
[2]
  mutagenic call: active; positive
Test System: AMES SALMONELLA TYPHIMURIUM, Strain/Indicator: TA100, Metabolic Activation: RAT, LIVER, S-9, AROCLOR, Method: STANDARD PLATE
  mutagenic call: active; positive

## Cc1n[nH]c(=O)[nH]c1=O
Test System: AMES SALMONELLA TYPHIMURIUM, Strain/Indicator: TA98, Metabolic Activation: MAIZE SEEDLING, S-14, Method: PREINCUBATION
  mutagenic call: inactive; negative
Test System: AMES SALMONELLA TYPHIMURIUM, Strain/Indicator: TA98, Metabolic Activation: MOUSE, LIVER, S-9, Method: PREINCUBATION
  mutagenic call: inactive; negative
Test System: AMES SALMONELLA TYPHIMURIUM, Strain/Indicator: TA98, Metabolic Activation: NONE, Method: PREINCUBATION
  mutagenic call: inactive; negative
Test System: AMES SALMONELLA TYPHIMURIUM, Strain/Indicator: TA100, Metabolic Activation: MAIZE SEEDLING, S-14, Method: PREINCUBATION
  mutagenic call: inactive; negative
Test System: AMES SALMONELLA TYPHIMURIUM, Strain/Indicator: TA100, Metabolic Activation: MOUSE, LIVER, S-9, Method: PREINCUBATION
  mutagenic call: inactive; negative
[3]
  mutagenic call: inactive; negative
Test System: AMES SALMONELLA TYPHIMURIUM, Strain/Indicator: TA1535, Metabolic Activation: NONE, Method: PREINCUBATION
  mutagenic call: inactive; negative
Test System: AMES SALMONELLA TYPHIMURIUM, Strain/Indicator: TA1537, Metabolic Activation: NONE, Method: PREINCUBATION
  mutagenic call: inactive; negative
Test System: AMES SALMONELLA TYPHIMURIUM, Strain/Indicator: TA1538, Metabolic Activation: NONE, Method: PREINCUBATION
  mutagenic call: inactive; negative

## CCCCN(C)N=O
Test System: AMES SALMONELLA TYPHIMURIUM, Strain/Indicator: TA100, Metabolic Activation: RAT, LIVER, S-9, KC500 OR PHENOBARBITAL, Method: LIQUID SUSPENSION
  mutagenic call: active; positive

## Nc1ccc(N(c2ccc3ccccc3c2)c2ccc3ccccc3c2)cc1
[1]
  mutagenic call: inactive; negative
[4]
  mutagenic call: inactive; negative
[2]
  mutagenic call: inactive; negative
[5]
  mutagenic call: inactive; negative

## ClC(Cl)=C(Cl)C(Cl)=C(Cl)Cl
End Point: IN VITRO CHROMOSOMAL ABERRATIONS, Test System: CHINESE HAMSTER OVARY CELLS, Metabolic Activation: NONE
  mutagenic call: inactive; negative
End Point: IN VITRO CHROMOSOMAL ABERRATIONS, Test System: CHINESE HAMSTER OVARY CELLS, Metabolic Activation: RAT, LIVER, S-9, AROCLOR 1254
  mutagenic call: inactive; negative
End Point: IN VITRO CHROMOSOMAL ABERRATIONS, Test System: CHL/IU CELLS, Metabolic Activation: NONE
  mutagenic call: active; positive (structural changes)
End Point: IN VITRO MICRONUCLEUS, Test System: CHL/IU CELLS, Metabolic Activation: NONE
  mutagenic call: active; positive
[3]
  mutagenic call: inactive; negative
[2]
  mutagenic call: active; positive
Test System: AMES SALMONELLA TYPHIMURIUM, Strain/Indicator: TA100, Metabolic Activation: RAT, LIVER, MICROSOMES AND GLUTATHIONE, Method: PREINCUBATION
  mutagenic call: active; positive
Test System: AMES SALMONELLA TYPHIMURIUM, Strain/Indicator: TA100, Metabolic Activation: RAT, LIVER, S-9, AROCLOR 1254 (30%), Method: PREINCUBATION
  mutagenic call: active; positive
[6]
  mutagenic call: active; positive

## N#CCCl
[1]
  mutagenic call: inactive; negative
[7]
  mutagenic call: inactive; negative
Test System: AMES SALMONELLA TYPHIMURIUM, Strain/Indicator: TA100, Metabolic Activation: NONE, Method: FLUCTUATION TEST
  mutagenic call: inactive; negative
[2]
  mutagenic call: inactive; negative
Test System: AMES SALMONELLA TYPHIMURIUM, Strain/Indicator: TA100, Metabolic Activation: RAT, LIVER, S-9, AROCLOR 1254, Method: FLUCTUATION TEST
  mutagenic call: active; positive
[6]
  mutagenic call: inactive; negative
Test System: AMES SALMONELLA TYPHIMURIUM, Strain/Indicator: TA1535, Metabolic Activation: NONE, Method: STANDARD PLATE
  mutagenic call: inactive; negative
Test System: AMES SALMONELLA TYPHIMURIUM, Strain/Indicator: TA1535, Metabolic Activation: RAT, LIVER, S-9, AROCLOR 1254, Method: STANDARD PLATE
  mutagenic call: inactive; negative

## CCN(CC)CC(=O)Nc1c(C(=O)c2ccccc2F)c(C)nn1C
Test System: AMES SALMONELLA TYPHIMURIUM, Strain/Indicator: TA98, Metabolic Activation: RAT, LIVER, S-9, AROCLOR 1254, Method: PREINCUBATION
  mutagenic call: active; positive
[7]
  mutagenic call: inactive; negative
Test System: AMES SALMONELLA TYPHIMURIUM, Strain/Indicator: TA100, Metabolic Activation: RAT, LIVER, S-9, AROCLOR 1254, Method: PREINCUBATION
  mutagenic call: active; positive
[6]
  mutagenic call: inactive; negative

## CC(=O)O[C@H]1[C@@]2(O)CC(C)(C)CC2=C(C=O)[C@@]2(C=O)C[C@@]12C
[1]
  mutagenic call: inactive; negative
[2]
  mutagenic call: active; positive
Test System: AMES SALMONELLA TYPHIMURIUM, Strain/Indicator: TA2637, Metabolic Activation: NONE, Method: STANDARD PLATE
  mutagenic call: inactive; negative

## O=[N+]([O-])c1ccc2c3ccccc3c3ccc([N+](=O)[O-])c4ccc1c2c43
End Point: In vitro micronucleus, Test System: CHL/IU cells, Metabolic Activation: None
  mutagenic call: active; positive
End Point: In vitro micronucleus, Test System: HepG2 cells, Metabolic Activation: None
  mutagenic call: active; positive
Test System: Chinese hamster lung cells/HPRT locus, Strain/Indicator: CHL/IU, Metabolic Activation: None
  mutagenic call: active; positive
Test System: Human liver cells/HPRT locus, Strain/Indicator: HepG2, Metabolic Activation: None
  mutagenic call: active; positive

## O[C@@H]1C=Cc2c(cc3ccc4cccc5ccc2c3c45)[C@H]1O
Test System: CHINESE HAMSTER V-79, Strain/Indicator: V-79/OUABAIN, Metabolic Activation: HAMSTER, EMBRYO, CELL-MEDIATED, Method: STANDARD PLATE
  mutagenic call: active; positive

## COc1cc(C(=O)OCCCN2CCCN(CCCOC(=O)c3cc(OC)c(OC)c(OC)c3)CC2)cc(OC)c1OC
Test System: AMES SALMONELLA TYPHIMURIUM, Strain/Indicator: TA98, Metabolic Activation: NONE
  mutagenic call: inactive; negative
Test System: AMES SALMONELLA TYPHIMURIUM, Strain/Indicator: TA98, Metabolic Activation: RAT, LIVER, S-9, PHENOBARBITAL AND 5,6-BENZOFLAVONE
  mutagenic call: inactive; negative
Test System: AMES SALMONELLA TYPHIMURIUM, Strain/Indicator: TA100, Metabolic Activation: NONE
  mutagenic call: inactive; negative
Test System: AMES SALMONELLA TYPHIMURIUM, Strain/Indicator: TA100, Metabolic Activation: RAT, LIVER, S-9, PHENOBARBITAL AND 5,6-BENZOFLAVONE
  mutagenic call: inactive; negative
Test System: AMES SALMONELLA TYPHIMURIUM, Strain/Indicator: TA1535, Metabolic Activation: NONE
  mutagenic call: inactive; negative
Test System: AMES SALMONELLA TYPHIMURIUM, Strain/Indicator: TA1535, Metabolic Activation: RAT, LIVER, S-9, PHENOBARBITAL AND 5,6-BENZOFLAVONE
  mutagenic call: inactive; negative
Test System: AMES SALMONELLA TYPHIMURIUM, Strain/Indicator: TA1537, Metabolic Activation: NONE
  mutagenic call: inactive; negative
Test System: AMES SALMONELLA TYPHIMURIUM, Strain/Indicator: TA1537, Metabolic Activation: RAT, LIVER, S-9, PHENOBARBITAL AND 5,6-BENZOFLAVONE
  mutagenic call: inactive; negative
Test System: E. COLI, Strain/Indicator: WP2 UVRA, Metabolic Activation: NONE
  mutagenic call: inactive; negative
Test System: E. COLI, Strain/Indicator: WP2 UVRA, Metabolic Activation: RAT, LIVER, S-9, PHENOBARBITAL AND 5,6-BENZOFLAVONE
  mutagenic call: inactive; negative

## Nc1ccc(/C=C/c2cccc(Cl)c2)cc1
Test System: AMES SALMONELLA TYPHIMURIUM, Strain/Indicator: TA98(1,8-DNP6), Metabolic Activation: NONE, Method: STANDARD PLATE
  mutagenic call: inactive; negative
Test System: AMES SALMONELLA TYPHIMURIUM, Strain/Indicator: TA98(1,8-DNP6), Metabolic Activation: S-9, Method: STANDARD PLATE
  mutagenic call: active; positive
[1]
  mutagenic call: active; positive
[4]
  mutagenic call: active; positive
[2]
  mutagenic call: inactive; negative
[5]
  mutagenic call: active; positive
